Measurements published in article PMC9234962, “Optimization of Peptide Linker-Based Fluorescent Ligands for the Histamine H1 Receptor” (Journal of Medicinal Chemistry, 2022).
Like-named read-outs stand apart in the source and are kept apart here. Square brackets hold non-standard residues; d marks the D form. Peptide text beside a SMILES is read from it. * marks the point of attachment. X1 = O=C(COc1ccc(/C=C/C2=[N+]3C(=Cc4ccc(-c5cccs5)n4[B-]3(F)F)C=C2)cc1)*; Propanoyl(3-Pip(4-O-2-BnPh)) = O=C(CCN1CCC(Oc2ccccc2Cc2ccccc2)CC1)*; βAla = NCCC(=O)O

What was measured:
Nluc-H3R = biological target: T1, Nluc-H3R (Homo sapiens, UniProt Q9Y5N1); test: NanoBRET saturation binding assay on Nluc-H3R HEK293T cell homogenates; settings: for binding at H3R in saturation assay (in words): concentrations of up to 1 μM
T1 construct: expressed in transfected cells; host or cells: HEK293T, transient transfection; sonicated cell homogenates
Experimental: (§1) HEK293T cells were transiently transfected with 2.5 μg of cDNA encoding Nluc-H3R or Nluc-H4R and 2.5 μg of empty pcDEF3 vector using the polyethylenimine method as described previously in Mocking et al.[23] Two days after transfection, cells were collected in phosphate-buffered saline (PBS) and centrifuged at 1900g for 10 min and the cell pellet was stored at −20°C until the day of experiment. The pellet was resuspended in HBSS buffer, and cells were disrupted using a Branson sonifier 250 (Boom bv., Meppel, the Netherlands) prior to use in a NanoBRET binding assay.
For all NanoBRET binding experiments, 10 μM NanoGlo substrate (Promega) was added to each well after the incubation period and fluorescence and luminescence emissions were measured after 5 min.
(§2) Total and non-specific saturation binding curves from NanoBRET saturation binding assay were fitted simultaneously using eq 1: [drawing 4] 1 where Bmax is the maximal specific binding, [B] is the concentration of fluorescent ligand in nM, KD is the equilibrium dissociation constant in nM, M is the slope of the non-specific component, and C is the intercept with the Y axis.

Nluc-H4R [1] = biological target: T2, Nluc-H4R (Homo sapiens, UniProt Q9H3N8); test: NanoBRET saturation binding assay on Nluc-H4R HEK293T cell homogenates; settings: for Kd / Nluc-H4R pKD: cell homogenates, highest concentration 1 μM for 31a, 31k; for Nluc-H4R pKD: mean ± SEM, three experiments; for binding at H4R in saturation assay (in words): concentrations of up to 1 μM
T2 construct: expressed in transfected cells; host or cells: HEK293T, transient transfection; sonicated cell homogenates
Experimental: as §1
For cell membrane NanoBRET saturation binding experiments, cell homogenates expressing the Nluc-H3R or Nluc-H4R were incubated with the required concentrations of fluorescent ligand in the absence and presence of 10 μM clobenpropit in HBSS for 2 h at 25 °C. For all NanoBRET binding experiments, 10 μM NanoGlo substrate (Promega) was added to each well after the incubation period and fluorescence and luminescence emissions were measured after 5 min.
as §2

Nluc-H4R [2] = biological target: T2, Nluc-H4R; parameters: method as in PMID 30249614; settings: literature value, cited from earlier work
human H1R = biological target: T3, human H1R (Homo sapiens, UniProt P35367); test: Ca2+ mobilization assay on human H1R-expressing CHO cells; assay type: cell-based; settings: Gaddum equation, shift in histamine EC25 with 1 μM antagonist
T3 construct: expressed in transfected cells; host or cells: CHO cells
Experimental: CHO cells expressing H1R were grown to confluence in black-walled, clear-bottom 96-well plates. On the day of the experiment, media were replaced with 100 μL of HBSS containing […], 2.3 μM Fluo-4AM (Invitrogen), 0.023% Pluronic F-127, 0.5 mM Brilliant Black BN, and 1 μM required fluorescent ligand and the plates incubated for 1 h at 37 °C in the dark. The plates were then placed in the multi-well fluorometric imaging plate reader FlexStation3 (Molecular Devices, Sunnyvale, CA) and HBSS only or HBSS containing the required concentration of histamine was added after 15 s. Fluo-4 fluorescence was measured at 520 nm (excitation at 485 nm) every 1.52 s for 200 s. For each well, the peak maximum–minimum–maximum change in fluorescence value was taken and plotted against concentration of histamine to give a dose–response curve.
Estimated affinity values (pKB) were calculated from the shift in agonist concentration–response curves in the presence of the fluorescent antagonists using the Gaddum equation (7): [drawing 10] 7 where DR (dose ratio) is the ratio of the agonist concentration required to stimulate an identical response in the presence and absence of antagonist, [B]. DR was determined from the EC25 value as there was a decrease in observed maximal efficacy of histamine in the presence of all 10 fluorescent antagonists.

YFP-tagged H1R = biological target: T4, YFP-tagged H1R (Homo sapiens, UniProt P35367); test: confocal imaging of YFP-tagged H1R expressing CHO cells; assay type: cell-based; settings: 1, 5, 10, 25 nM, 30 min, 37 °C, ± 10 μM mepyramine
T4 construct: expressed in transfected cells; host or cells: CHO cells
Experimental: H1R-YFP expressing CHO cells were grown to approximately 80% confluency on an 8-well Labtek chambered coverglass (Nunc Nalgene). On the day of experiment, the cells were washed two times with 200 μL of HBSS and subsequently incubated in the presence or absence of 10 μM mepyramine for 30 min at 37 °C in humidified air with 0% CO2. The required concentration of 31a was added to the wells and incubated for another 30 min at 37 °C. Images were acquired using a Zeiss LSM710 confocal microscope (Carl Zeiss GmbH, Hena, Germany) fitted with a 63× plan-Apochromat NA1.3 Ph3 oil-immersion lens. For YFP, a 488 nm argon laser was used for excitation and emission was detected using a BP505-30 filter. For fluorescent ligand 31a, a 633 nm helium-neon laser was used for excitation and emission was detected using a 650 nm long pass filter. A pinhole of 1 Airy Unit was used, and fixed laser power, gain, and offset for the BODIPY 630/650 containing compounds were kept constant across all experiments.

Nluc-H1R [3] = biological target: T5, Nluc-H1R (Homo sapiens, UniProt P35367); test: NanoBRET saturation binding assay on Nluc-H1R expressing HEK293T cells; parameters: expressed in transfected cells; settings: saturation binding curves, whole HEK293T cells
Text: as §2

Nluc-H1R [4] = biological target: T5, Nluc-H1R; test: NanoBRET association kinetics assay on Nluc-H1R HEK293T cells; assay type: binding; parameters: expressed in transfected cells
Experimental: For whole cell NanoBRET association kinetic experiments, 10 μM furimazine was added to each well and incubated at room temperature in the dark for 15 min to allow for stabilization of the luminescence signal. The required concentration of fluorescent ligand in the presence or absence of 10 μM of doxepin was added simultaneously, and the plates were read immediately with each well being read once per min for 90 min.
For the NanoBRET association kinetic experiments, the BRET ratio was determined for each concentration of fluorescent ligand at each time point in the presence or absence of 10 μM of doxepin. Specific binding was calculated by subtracting non-specific binding from total binding.

T5 sequence (P35367 whole entry): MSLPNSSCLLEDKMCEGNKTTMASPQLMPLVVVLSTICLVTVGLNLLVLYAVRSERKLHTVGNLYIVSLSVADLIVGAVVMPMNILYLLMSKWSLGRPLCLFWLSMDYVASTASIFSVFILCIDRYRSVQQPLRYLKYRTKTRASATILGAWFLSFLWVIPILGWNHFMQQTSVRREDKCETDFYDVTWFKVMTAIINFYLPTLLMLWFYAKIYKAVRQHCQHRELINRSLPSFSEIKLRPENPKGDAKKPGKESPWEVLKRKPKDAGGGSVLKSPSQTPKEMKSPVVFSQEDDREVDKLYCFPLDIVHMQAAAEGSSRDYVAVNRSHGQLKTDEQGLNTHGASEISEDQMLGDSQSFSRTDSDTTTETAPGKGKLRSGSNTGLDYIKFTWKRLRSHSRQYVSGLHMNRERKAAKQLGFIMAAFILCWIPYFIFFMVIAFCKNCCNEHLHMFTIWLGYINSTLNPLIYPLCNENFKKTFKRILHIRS
T1 sequence (Q9Y5N1 whole entry): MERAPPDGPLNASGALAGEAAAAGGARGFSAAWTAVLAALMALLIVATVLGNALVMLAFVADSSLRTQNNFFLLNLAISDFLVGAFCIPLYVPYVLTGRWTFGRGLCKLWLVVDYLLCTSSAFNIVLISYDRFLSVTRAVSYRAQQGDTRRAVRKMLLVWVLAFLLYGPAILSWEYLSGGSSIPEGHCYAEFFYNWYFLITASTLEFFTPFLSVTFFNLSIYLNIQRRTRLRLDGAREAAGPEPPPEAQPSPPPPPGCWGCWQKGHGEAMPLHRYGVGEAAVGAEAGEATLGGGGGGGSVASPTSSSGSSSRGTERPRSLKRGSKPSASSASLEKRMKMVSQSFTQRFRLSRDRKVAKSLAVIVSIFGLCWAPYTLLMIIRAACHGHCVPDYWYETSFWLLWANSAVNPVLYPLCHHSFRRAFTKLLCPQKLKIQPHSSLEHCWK
T2 sequence (Q9H3N8 whole entry): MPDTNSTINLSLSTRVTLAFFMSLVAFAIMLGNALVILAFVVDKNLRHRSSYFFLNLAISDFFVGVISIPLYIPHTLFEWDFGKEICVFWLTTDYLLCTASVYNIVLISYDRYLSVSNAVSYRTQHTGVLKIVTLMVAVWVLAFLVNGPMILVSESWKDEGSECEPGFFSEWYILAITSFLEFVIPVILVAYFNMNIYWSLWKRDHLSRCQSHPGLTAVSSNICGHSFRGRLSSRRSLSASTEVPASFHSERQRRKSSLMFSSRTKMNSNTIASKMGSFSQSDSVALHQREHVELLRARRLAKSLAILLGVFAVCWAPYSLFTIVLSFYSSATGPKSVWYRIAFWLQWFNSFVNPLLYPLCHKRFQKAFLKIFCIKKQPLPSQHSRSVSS
T3 sequence (P35367 whole entry): as the sequence (P35367 whole entry) above
T4 sequence (P35367 whole entry): as above

For `NC(=NCc1ccc(Cl)cc1)SCCCc1cnc[nH]1` [CA200843, reference compound], which “binding at H3R in saturation assay (in words)” value (Nluc-H3R) is on record?
Its value is “concentration-dependent, saturable and reversible binding”.

And the Kd (Nluc-H4R [1])?
The Kd was 31 nM.

And the “Nluc-H4R pKD” value (Nluc-H4R [1])?
Its value is 7.51 ± 0.04.

What about the “binding at H4R in saturation assay (in words)” value (Nluc-H4R [1]) of the same compound?
Its value is “concentration-dependent, saturable and reversible binding”.

What about the “pKD at Nluc-H4R reported in literature” value (Nluc-H4R [2]) of the same compound?
Its value is 7.15.

And the Kd (Nluc-H4R [2]; read-out: binding affinity at Nluc-H4R reported in literature)?
Its Kd is 70 nM.

For `CC(C)[C@H](NC(=O)CCN1CCC(Oc2ccccc2Cc2ccccc2)CC1)C(=O)N[C@@H](CO)C(=O)N[C@@H](CC(N)=O)C(=O)NCCC(=O)N[C@@H](CCCCNC(=O)COc1ccc(/C=C/C2=[N+]3C(=Cc4ccc(-c5cccs5)n4[B-]3(F)F)C=C2)cc1)C(N)=O` [Compound 31a, (S)-N1-(3-(((S)-1-Amino-6-(2-(4-((E)-2-(5,5-difluoro-7-(thiophen-2-yl)-5H-5λ^4,6λ^4-dipyrrolo[1,2-c:2’,1’-f][1,3,2]diazaborinin-3-yl)vinyl)phenoxy)acetamido)-1-oxohexan-2-yl)amino)-3-oxopropyl)-2-((S)-2-((S)-2-(3-(4-(2-benzylphenoxy)piperidin-1-yl)propanamido)-3-methylbutanamido)-3-hydroxypropanamido)succinamide] ({Propanoyl(3-Pip(4-O-2-BnPh))}-VSN[βAla]K(X1)-NH2), which Kb (human H1R; mean ± SEM, four experiments, read-out: pKB (converted)) is on record?
Its Kb is 2.75 nM.

And the Kb (human H1R; read-out: KB (converted))?
Its Kb is 3 nM.

What about the Kd (Nluc-H3R; cell homogenates, highest concentration 1 μM for 31a, 31k) of the same compound?
Its Kd is under 1000 nM.

And the “Nluc-H3R pKD” value (Nluc-H3R; cell homogenates, highest concentration 1 μM for 31a, 31k, mean ± SEM, three experiments)?
Its value is under 6.

What about the “binding at H3R in saturation assay (in words)” value (Nluc-H3R) of the same compound?
The value was “little to no binding”.

What about the Kd (Nluc-H4R [1]) of the same compound?
Its Kd is under 1000 nM.

What about the “Nluc-H4R pKD” value (Nluc-H4R [1]) of the same compound?
The value was under 6.

What about the “binding at H4R in saturation assay (in words)” value (Nluc-H4R [1]) of the same compound?
Its value is “little to no binding”.

And the “localization in confocal imaging” value (YFP-tagged H1R)?
Its value is “localized to the plasma membrane of the cells with almost no intracellular uptake”.

And the Kd (Nluc-H1R [3])?
Its Kd is 4 nM.

What about the pKD (Nluc-H1R [3]; non-specific with 10 μM mepyramine, mean ± SEM) of the same compound?
Its pKD is 8.40 ± 0.08.

What about the Kd (Nluc-H1R [4]; kinetic pKD, mean ± SEM, read-out: pKD determined from kon and koff (converted)) of the same compound?
The Kd was 17.8 nM.

And the residence time (Nluc-H1R [4]; read-out: mean residence times (MRT))?
Its residence time is over 60 min.

What about the kon (Nluc-H1R [4]; real-time NanoBRET, room temperature, 90 min, mean ± SEM) of the same compound?
Its kon is 14000 M⁻¹ s⁻¹.

And the “MRT (mean residence time, 1/koff)” value (Nluc-H1R [4]; real-time NanoBRET, mean ± SEM)?
The value was 1.26 ± 0.17 h.

And the koff (Nluc-H1R [4]; real-time NanoBRET, mean ± SEM)?
The koff was 0.000233 s⁻¹.
